ChEMBL document CHEMBL1201861, “Genomics of Drug Sensitity in Cancer screening data, Wellcome Trust Sanger Institute”

Key:
Assay in all cases: cells
MCF7 = type: functional, cell-based, Homo sapiens; conditions: Homo sapiens, MCF7;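 also: growth inhibition of human MCF7 cells, read out with a cell viability assay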
Description: SANGER: Inhibition of human MCF7 cell growth in a cell viability assay.

U2OS = type: functional, cell-based, Homo sapiens, U-2-OS; conditions: Homo sapiens, U2OS;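 also: growth inhibition of human U-2-OS cells, determined with a cell viability assay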
Description: SANGER: Inhibition of human U-2-OS cell growth in a cell viability assay.

PANC-03-27 = type: functional, cell-based, Homo sapiens; conditions: Homo sapiens, PANC-03-27
Description: SANGER: Inhibition of human PANC-03-27 cell growth in a cell viability assay.

HT-3 = type: functional, cell-based, Homo sapiens; conditions: Homo sapiens, HT-3;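 also: growth inhibition measured with a cell viability readout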
Description: SANGER: Inhibition of human HT-3 cell growth in a cell viability assay.

SK-MEL-24 = type: functional, cell-based, Homo sapiens; conditions: Homo sapiens, SK-MEL-24;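 also: growth inhibition read out by a cell viability assay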
Description: SANGER: Inhibition of human SK-MEL-24 cell growth in a cell viability assay.

G-361 = type: functional, cell-based, Homo sapiens; conditions: Homo sapiens, G-361
SK-N-AS = type: functional, cell-based, Homo sapiens; conditions: Homo sapiens, SK-N-AS;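 also: growth inhibition of human SK-N-AS cells, measured with a cell viability assay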
Description: SANGER: Inhibition of human SK-N-AS cell growth in a cell viability assay.

CHP-212 = type: functional, cell-based, Homo sapiens; conditions: Homo sapiens, CHP-212
Description: SANGER: Inhibition of human CHP-212 cell growth in a cell viability assay.

NCI-H2029 = type: functional, cell-based, Homo sapiens; conditions: Homo sapiens, NCI-H2029;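 also: Read-out is a viability assay on the cultured cells, and IC50 is the concentration that suppresses cell growth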
Description: SANGER: Inhibition of human NCI-H2029 cell growth in a cell viability assay.

LCLC-97TM1 = type: functional, cell-based, Homo sapiens; conditions: Homo sapiens, LCLC-97TM1;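 also: cell viability assay measuring growth inhibition of human LCLC-97TM1 cells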
Description: SANGER: Inhibition of human LCLC-97TM1 cell growth in a cell viability assay.

COLO-792 = type: functional, cell-based, Homo sapiens; conditions: Homo sapiens, COLO-792
Description: SANGER: Inhibition of human COLO-792 cell growth in a cell viability assay.

BPH-1 = type: functional, cell-based, Homo sapiens; conditions: Homo sapiens, BPH-1;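 also: cell viability assay measuring growth inhibition of human BPH-1 cells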
Description: SANGER: Inhibition of human BPH-1 cell growth in a cell viability assay.

LoVo = type: functional, cell-based, Homo sapiens; conditions: Homo sapiens, LoVo;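 also: growth inhibition of human LoVo cells, read out with a cell viability assay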
Description: SANGER: Inhibition of human LoVo cell growth in a cell viability assay.

T84 = type: functional, cell-based, Homo sapiens; conditions: Homo sapiens, T84;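 also: growth inhibition measured with a cell viability readout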
Description: SANGER: Inhibition of human T84 cell growth in a cell viability assay.

HT-29 = type: functional, cell-based, Homo sapiens; conditions: Homo sapiens, HT-29;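 also: growth inhibition of human HT-29 cells, read out by a cell viability assay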
Description: SANGER: Inhibition of human HT-29 cell growth in a cell viability assay.

U-251 = type: functional, cell-based, Homo sapiens; conditions: Homo sapiens, U-251;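 also: growth inhibition of human U-251 cells, read out through a cell viability assay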
Description: SANGER: Inhibition of human U251 cell growth in a cell viability assay.

KP-4 = type: functional, cell-based, Homo sapiens; conditions: Homo sapiens, KP-4;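 also: human KP-4 cells, with growth inhibition read out through a cell viability assay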
Description: SANGER: Inhibition of human KP-4 cell growth in a cell viability assay.

IGROV-1 = type: functional, cell-based, Homo sapiens; conditions: Homo sapiens, IGROV-1;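 also: reduction of IGROV-1 cell growth, read out with a viability assay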
Description: SANGER: Inhibition of human IGROV-1 cell growth in a cell viability assay.

Panc1005 = type: functional, cell-based, Homo sapiens; conditions: Homo sapiens, Panc1005;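 also: growth inhibition of human PANC-10-05 cells, measured by a cell viability assay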
Description: SANGER: Inhibition of human PANC-10-05 cell growth in a cell viability assay.

NCI-H1703 = type: functional, cell-based, Homo sapiens; conditions: Homo sapiens, NCI-H1703;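 also: growth inhibition of NCI-H1703 cells, read out via a cell viability assay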
Description: SANGER: Inhibition of human NCI-H1703 cell growth in a cell viability assay.

CAL-72 = type: functional, cell-based, Homo sapiens; conditions: Homo sapiens, CAL-72;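 also: cell viability assay measuring inhibition of proliferation in the CAL-72 cell line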
Description: SANGER: Inhibition of human CAL-72 cell growth in a cell viability assay.

ChaGo-K-1 = type: functional, cell-based, Homo sapiens; conditions: Homo sapiens, ChaGo-K-1;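 also: growth inhibition of ChaGo-K-1 cells, read out with a cell viability assay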
Description: SANGER: Inhibition of human ChaGo-K-1 cell growth in a cell viability assay.

KYSE-520 cell line = type: functional, cell-based, Homo sapiens; conditions: Homo sapiens, KYSE-520;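 also: growth inhibition of human KYSE-520 cells, read out with a viability assay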
Description: SANGER: Inhibition of human KYSE-520 cell growth in a cell viability assay.

BT-20 = type: functional, cell-based, Homo sapiens; conditions: Homo sapiens, BT-20;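 also: cell viability assay measuring suppression of growth in human BT-20 cells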
Description: SANGER: Inhibition of human BT-20 cell growth in a cell viability assay.

NCI-H460 = type: functional, cell-based, Homo sapiens; conditions: Homo sapiens, NCI-H460;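 also: cell viability assay scoring growth inhibition of human NCI-H460 cells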
Description: SANGER: Inhibition of human NCI-H460 cell growth in a cell viability assay.

OC-314 = type: functional, cell-based, Homo sapiens; conditions: Homo sapiens, OC-314
Description: SANGER: Inhibition of human OC-314 cell growth in a cell viability assay.

SW837 = type: functional, cell-based, Homo sapiens; conditions: Homo sapiens, SW837;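 also: growth inhibition of SW837 cells, determined with a cell viability assay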
Description: SANGER: Inhibition of human SW837 cell growth in a cell viability assay.

BHY = type: functional, cell-based, Homo sapiens; conditions: Homo sapiens, BHY;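 also: cell growth inhibition read out by a viability assay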
Description: SANGER: Inhibition of human BHY cell growth in a cell viability assay.

HuP-T4 = type: functional, cell-based, Homo sapiens; conditions: Homo sapiens, HuP-T4;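 also: cell viability assay measuring how much HuP-T4 cell growth is inhibited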
Description: SANGER: Inhibition of human HuP-T4 cell growth in a cell viability assay.

NUGC-3 = type: functional, cell-based, Homo sapiens; conditions: Homo sapiens, NUGC-3;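 also: growth inhibition of human NUGC-3 cells, read out with a cell viability assay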
Description: SANGER: Inhibition of human NUGC-3 cell growth in a cell viability assay.

HT55 = type: functional, cell-based, Homo sapiens; conditions: Homo sapiens, HT55;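 also: cell viability readout measuring growth inhibition of human HT55 cells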
Description: SANGER: Inhibition of human HT55 cell growth in a cell viability assay.

SMILES | IC50 (MCF7) [µM] | IC50 (U2OS) [µM] | IC50 (PANC-03-27) [µM] | IC50 (HT-3) [µM] | IC50 (SK-MEL-24) [µM] | IC50 (G-361) [µM] | IC50 (SK-N-AS) [µM] | IC50 (CHP-212) [µM] | IC50 (NCI-H2029) [µM] | IC50 (LCLC-97TM1) [µM] | IC50 (COLO-792) [µM] | IC50 (BPH-1) [µM] | IC50 (LoVo) [µM] | IC50 (T84) [µM] | IC50 (HT-29) [µM] | IC50 (U-251) [µM] | IC50 (KP-4) [µM] | IC50 (IGROV-1) [µM] | IC50 (Panc1005) [µM] | IC50 (NCI-H1703) [µM] | also measured
CO[C@H]1C[C@@H]2CC[C@@H](C)[C@@](O)(O2)C(=O)C(=O)N2CCCC[C@H]2C(=O)O[C@H]([C@H](C)C[C@@H]2CC[C@@H](OC(=O)C(C)(CO)CO)[C@H](OC)C2)CC(=O)[C@H](C)/C=C(\C)[C@@H](O)[C@@H](OC)C(=O)[C@H](C)C[C@H](C)/C=C/C=C/C=C/1C [TEMSIROLIMUS] | > 0.2 | 0.0702 | > 0.2 | > 0.2 | 0.077 | 0.146 | 0.127 | 0.0524 | > 0.2 | > 0.2 | > 0.2 | 0.0324 | > 0.2 | > 0.2 | > 0.2 | > 0.2 | 0.116 | 0.0388 | 0.155 | 0.0232 | IC50 (CAL-72): > 0.2 µM; IC50 (ChaGo-K-1): > 0.2 µM; IC50 (KYSE-520 cell line): 0.139 µM; IC50 (BT-20): > 0.2 µM; IC50 (NCI-H460): > 0.2 µM; IC50 (OC-314): 0.0179 µM; IC50 (SW837): > 0.2 µM; IC50 (BHY): > 0.2 µM; IC50 (HuP-T4): > 0.2 µM; IC50 (NUGC-3): 0.0235 µM; IC50 (HT55): > 0.2 µM
CS(=O)(=O)c1ccc(C(=O)Nc2ccc(Cl)c(-c3ccccn3)c2)c(Cl)c1 [VISMODEGIB] | > 10 | > 10 | > 10 | > 10 | > 10 | > 10 | > 10 | > 10 | > 10 | > 10 | > 10 | > 10 | > 10 | > 10 | > 10 | > 10 | > 10 | 0.0725 | > 10 | > 10 | IC50 (CAL-72): > 10 µM; IC50 (ChaGo-K-1): > 10 µM; IC50 (KYSE-520 cell line): > 10 µM; IC50 (BT-20): > 10 µM; IC50 (NCI-H460): > 10 µM; IC50 (OC-314): > 10 µM; IC50 (SW837): > 10 µM; IC50 (BHY): > 10 µM; IC50 (HuP-T4): > 10 µM; IC50 (NUGC-3): > 10 µM; IC50 (HT55): > 10 µM
Nc1cccc2c1CN(C1CCC(=O)NC1=O)C2=O (stereo not drawn) [LENALIDOMIDE] | > 5 | > 5 | > 5 | > 5 | > 5 | > 5 | > 5 | > 5 | > 5 | > 5 | > 5 | > 5 | > 5 | > 5 | > 5 | > 5 | > 5 | > 5 | > 5 | > 5 | IC50 (CAL-72): > 5 µM; IC50 (ChaGo-K-1): > 5 µM; IC50 (KYSE-520 cell line): > 5 µM; IC50 (BT-20): > 5 µM; IC50 (NCI-H460): > 5 µM; IC50 (OC-314): > 5 µM; IC50 (SW837): > 5 µM; IC50 (BHY): > 5 µM; IC50 (HuP-T4): > 5 µM; IC50 (NUGC-3): > 5 µM; IC50 (HT55): > 5 µM
